Test results from patent US12343326B2, “Psychoactive medicines and their use for treating psychiatric and neurological conditions and disorders” (Transcend Therapeutics, Inc., priority 2021, dated 2025).

Assays:
Assay in all cases: β-arrestin based GPCR screen (PathHunter / GPCRmax), agonist mode
Format in all cases: cell-based
Set-up in all cases: host or cells: PathHunter cell lines
168 GPCRs [1] = biological target: 168 GPCRs (Homo sapiens, UniProt P08172); settings: CHRM2, Agonist
Procedure: (§1) For agonist determination, cells were incubated with sample to induce response. […] Vehicle concentration was 1%.

168 GPCRs [2] = biological target: 168 GPCRs (Homo sapiens, UniProt P21453)
Procedure: as §1

168 GPCRs [3] = biological target: 168 GPCRs (Homo sapiens, UniProt P21554)
Procedure: as §1

168 GPCRs [4] = biological target: 168 GPCRs (Homo sapiens, UniProt P21731); settings: TBXA2R
Procedure: as §1

168 GPCRs [5] = biological target: 168 GPCRs (Homo sapiens, UniProt P25106)
Procedure: as §1

168 GPCRs [6] = biological target: 168 GPCRs (Homo sapiens, UniProt P29371)
Procedure: as §1

168 GPCRs [7] = biological target: 168 GPCRs (Homo sapiens, UniProt P32239); settings: CCKBR, Agonist
Procedure: as §1

168 GPCRs [8] = biological target: T1, 168 GPCRs (Homo sapiens, UniProt P32248); settings: CCR7, Agonist
T1 sequence (P32248 25-378): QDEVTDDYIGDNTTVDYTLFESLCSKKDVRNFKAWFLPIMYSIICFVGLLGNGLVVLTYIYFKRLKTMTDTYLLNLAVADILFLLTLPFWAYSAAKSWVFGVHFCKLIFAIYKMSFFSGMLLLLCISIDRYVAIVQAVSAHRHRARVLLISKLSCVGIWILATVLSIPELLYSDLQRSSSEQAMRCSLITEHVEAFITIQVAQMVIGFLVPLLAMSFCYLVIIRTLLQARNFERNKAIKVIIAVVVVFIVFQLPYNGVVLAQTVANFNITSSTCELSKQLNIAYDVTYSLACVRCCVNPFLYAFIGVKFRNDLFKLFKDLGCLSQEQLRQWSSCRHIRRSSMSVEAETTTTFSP
Procedure: as §1

168 GPCRs [9] = biological target: 168 GPCRs (Homo sapiens, UniProt P35408)
Procedure: as §1

168 GPCRs [10] = biological target: 168 GPCRs (Homo sapiens, UniProt P35414); settings: AGTRL1, Agonist
Procedure: as §1

168 GPCRs [11] = biological target: 168 GPCRs (Homo sapiens, UniProt P41586); settings: ADCYAP1R1, Agonist
Procedure: as §1

168 GPCRs [12] = biological target: 168 GPCRs (Homo sapiens, UniProt P41587)
Procedure: as §1

168 GPCRs [13] = biological target: 168 GPCRs (Homo sapiens, UniProt P47211)
Procedure: as §1

168 GPCRs [14] = biological target: 168 GPCRs (Homo sapiens, UniProt P47871); settings: GCGR
Procedure: as §1

168 GPCRs [15] = biological target: 168 GPCRs (Homo sapiens, UniProt P47901); settings: AVPR1B, Agonist
Procedure: as §1

168 GPCRs [16] = biological target: 168 GPCRs (Homo sapiens, UniProt P49019); settings: GPR109B
Procedure: as §1

168 GPCRs [17] = biological target: 168 GPCRs (Homo sapiens, UniProt P49190)
Procedure: as §1

168 GPCRs [18] = biological target: 168 GPCRs (Homo sapiens, UniProt Q9HBW0)
Procedure: as §1

168 GPCRs [19] = biological target: 168 GPCRs (Homo sapiens, UniProt Q9HC97)
Procedure: as §1

168 GPCRs [20] = biological target: 168 GPCRs (Homo sapiens, UniProt Q9P296); settings: C5L2, Agonist
Procedure: as §1

168 GPCRs (Homo sapiens, UniProt P49019), sequence (P49019 whole entry): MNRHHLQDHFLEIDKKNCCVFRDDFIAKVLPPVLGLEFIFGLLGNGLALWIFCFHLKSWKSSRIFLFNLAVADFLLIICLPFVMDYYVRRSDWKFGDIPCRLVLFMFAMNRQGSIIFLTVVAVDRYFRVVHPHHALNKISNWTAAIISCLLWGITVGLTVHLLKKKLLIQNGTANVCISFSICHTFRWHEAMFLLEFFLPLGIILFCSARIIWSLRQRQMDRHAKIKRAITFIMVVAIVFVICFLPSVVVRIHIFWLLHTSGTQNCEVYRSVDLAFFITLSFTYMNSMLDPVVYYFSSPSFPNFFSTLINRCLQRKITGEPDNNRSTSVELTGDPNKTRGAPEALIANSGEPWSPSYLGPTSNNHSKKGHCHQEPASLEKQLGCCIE
168 GPCRs (Homo sapiens, UniProt P49190), sequence (P49190 25-550): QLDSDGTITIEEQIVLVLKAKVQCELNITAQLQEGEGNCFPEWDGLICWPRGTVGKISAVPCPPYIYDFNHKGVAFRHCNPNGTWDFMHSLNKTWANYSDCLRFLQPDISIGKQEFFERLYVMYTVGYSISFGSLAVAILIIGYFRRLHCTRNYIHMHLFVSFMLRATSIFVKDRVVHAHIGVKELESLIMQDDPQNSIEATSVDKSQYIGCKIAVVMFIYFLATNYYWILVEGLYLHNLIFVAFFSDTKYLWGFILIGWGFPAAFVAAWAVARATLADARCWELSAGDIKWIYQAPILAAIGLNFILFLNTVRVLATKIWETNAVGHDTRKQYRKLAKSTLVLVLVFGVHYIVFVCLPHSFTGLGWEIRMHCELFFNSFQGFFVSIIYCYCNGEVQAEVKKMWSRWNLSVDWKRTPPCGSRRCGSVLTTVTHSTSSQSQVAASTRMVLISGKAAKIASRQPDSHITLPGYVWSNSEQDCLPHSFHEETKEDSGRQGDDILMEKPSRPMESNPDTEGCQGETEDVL
168 GPCRs (Homo sapiens, UniProt Q9P296), sequence (Q9P296 whole entry): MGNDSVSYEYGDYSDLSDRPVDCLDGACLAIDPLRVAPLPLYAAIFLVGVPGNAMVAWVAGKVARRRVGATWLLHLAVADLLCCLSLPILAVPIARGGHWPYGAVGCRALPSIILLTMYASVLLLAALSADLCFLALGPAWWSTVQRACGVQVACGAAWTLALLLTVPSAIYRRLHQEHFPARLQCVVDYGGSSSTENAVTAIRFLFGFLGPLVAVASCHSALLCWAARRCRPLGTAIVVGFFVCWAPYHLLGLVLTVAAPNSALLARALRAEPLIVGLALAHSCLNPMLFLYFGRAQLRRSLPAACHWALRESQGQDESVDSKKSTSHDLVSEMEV
168 GPCRs (Homo sapiens, UniProt P41587), sequence (P41587 24-438): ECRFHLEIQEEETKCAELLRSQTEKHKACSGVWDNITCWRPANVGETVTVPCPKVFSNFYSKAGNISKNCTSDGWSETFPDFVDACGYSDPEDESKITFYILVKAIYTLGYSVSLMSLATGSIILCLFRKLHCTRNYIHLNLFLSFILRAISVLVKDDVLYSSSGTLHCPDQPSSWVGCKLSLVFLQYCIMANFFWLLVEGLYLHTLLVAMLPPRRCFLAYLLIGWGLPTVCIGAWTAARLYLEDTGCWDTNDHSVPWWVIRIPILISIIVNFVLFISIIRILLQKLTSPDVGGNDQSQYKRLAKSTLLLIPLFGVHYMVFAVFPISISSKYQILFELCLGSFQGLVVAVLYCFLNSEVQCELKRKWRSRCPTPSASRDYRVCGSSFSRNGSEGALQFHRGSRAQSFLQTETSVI
168 GPCRs (Homo sapiens, UniProt P47901), sequence (P47901 whole entry): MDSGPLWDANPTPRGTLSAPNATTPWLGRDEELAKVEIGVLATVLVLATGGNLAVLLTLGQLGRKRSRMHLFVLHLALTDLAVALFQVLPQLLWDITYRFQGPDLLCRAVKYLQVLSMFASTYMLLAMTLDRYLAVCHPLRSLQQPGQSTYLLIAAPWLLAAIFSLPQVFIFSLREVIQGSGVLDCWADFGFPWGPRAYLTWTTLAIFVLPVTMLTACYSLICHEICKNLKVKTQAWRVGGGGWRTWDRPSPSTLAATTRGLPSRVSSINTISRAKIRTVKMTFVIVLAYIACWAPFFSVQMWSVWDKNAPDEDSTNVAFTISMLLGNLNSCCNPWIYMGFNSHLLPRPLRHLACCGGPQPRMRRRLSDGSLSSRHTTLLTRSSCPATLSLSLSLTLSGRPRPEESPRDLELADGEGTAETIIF
168 GPCRs (Homo sapiens, UniProt P32239), sequence (P32239 whole entry): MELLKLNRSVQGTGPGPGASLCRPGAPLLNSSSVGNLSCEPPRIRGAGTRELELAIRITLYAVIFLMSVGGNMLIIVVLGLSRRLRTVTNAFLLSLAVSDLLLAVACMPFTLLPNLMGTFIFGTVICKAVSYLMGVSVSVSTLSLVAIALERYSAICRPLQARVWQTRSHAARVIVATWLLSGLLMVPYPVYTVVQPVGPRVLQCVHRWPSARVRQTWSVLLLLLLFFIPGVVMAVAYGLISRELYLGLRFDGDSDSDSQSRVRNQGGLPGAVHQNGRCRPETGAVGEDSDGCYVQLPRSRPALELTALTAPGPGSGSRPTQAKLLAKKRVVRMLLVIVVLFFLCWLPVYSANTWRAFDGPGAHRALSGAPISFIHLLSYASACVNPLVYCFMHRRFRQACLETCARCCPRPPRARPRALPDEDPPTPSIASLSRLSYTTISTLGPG
168 GPCRs (Homo sapiens, UniProt P35414), sequence (P35414 whole entry): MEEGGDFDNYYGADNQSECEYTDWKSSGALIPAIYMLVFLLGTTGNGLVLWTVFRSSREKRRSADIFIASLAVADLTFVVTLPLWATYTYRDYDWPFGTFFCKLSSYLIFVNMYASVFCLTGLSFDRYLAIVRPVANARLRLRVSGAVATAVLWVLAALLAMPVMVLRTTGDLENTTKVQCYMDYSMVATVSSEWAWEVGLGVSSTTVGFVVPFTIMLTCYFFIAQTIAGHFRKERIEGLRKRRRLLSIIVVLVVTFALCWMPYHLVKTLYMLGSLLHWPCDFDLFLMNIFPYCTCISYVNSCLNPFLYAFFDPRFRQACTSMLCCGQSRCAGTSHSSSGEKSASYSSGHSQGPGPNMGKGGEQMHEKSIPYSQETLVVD
168 GPCRs (Homo sapiens, UniProt P25106), sequence (P25106 whole entry): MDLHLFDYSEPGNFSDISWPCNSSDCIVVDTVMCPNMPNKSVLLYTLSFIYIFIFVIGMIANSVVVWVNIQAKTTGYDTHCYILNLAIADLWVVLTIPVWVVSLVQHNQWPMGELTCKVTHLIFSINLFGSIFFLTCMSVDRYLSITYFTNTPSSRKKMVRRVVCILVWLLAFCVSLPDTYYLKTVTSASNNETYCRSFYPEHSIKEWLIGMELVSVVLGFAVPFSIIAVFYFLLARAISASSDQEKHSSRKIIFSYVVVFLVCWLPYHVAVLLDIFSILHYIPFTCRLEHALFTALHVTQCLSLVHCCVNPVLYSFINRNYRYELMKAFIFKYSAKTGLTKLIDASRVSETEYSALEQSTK
168 GPCRs (Homo sapiens, UniProt P47871), sequence (P47871 26-477): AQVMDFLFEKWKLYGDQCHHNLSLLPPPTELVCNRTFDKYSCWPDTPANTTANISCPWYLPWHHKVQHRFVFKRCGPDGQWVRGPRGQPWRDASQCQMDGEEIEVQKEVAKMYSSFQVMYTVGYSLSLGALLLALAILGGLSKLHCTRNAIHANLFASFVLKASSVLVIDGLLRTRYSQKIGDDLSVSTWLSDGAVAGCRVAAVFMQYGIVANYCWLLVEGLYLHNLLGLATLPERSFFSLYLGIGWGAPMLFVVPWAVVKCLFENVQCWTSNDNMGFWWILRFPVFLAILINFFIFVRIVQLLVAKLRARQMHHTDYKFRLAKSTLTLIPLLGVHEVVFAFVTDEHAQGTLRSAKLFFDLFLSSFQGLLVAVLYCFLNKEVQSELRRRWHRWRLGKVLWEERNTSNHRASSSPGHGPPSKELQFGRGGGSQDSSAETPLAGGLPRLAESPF
168 GPCRs (Homo sapiens, UniProt P21731), sequence (P21731 whole entry): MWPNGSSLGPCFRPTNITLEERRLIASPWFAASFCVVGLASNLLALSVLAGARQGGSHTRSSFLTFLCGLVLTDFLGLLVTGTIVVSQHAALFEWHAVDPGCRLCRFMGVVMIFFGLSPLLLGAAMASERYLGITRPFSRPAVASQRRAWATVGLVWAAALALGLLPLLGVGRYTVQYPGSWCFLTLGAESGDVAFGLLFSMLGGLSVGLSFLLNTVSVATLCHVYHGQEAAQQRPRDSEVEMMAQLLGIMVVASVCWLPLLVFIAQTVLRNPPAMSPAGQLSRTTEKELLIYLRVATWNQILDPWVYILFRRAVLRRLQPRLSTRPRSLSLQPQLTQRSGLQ
168 GPCRs (Homo sapiens, UniProt Q9HC97), sequence (Q9HC97 whole entry): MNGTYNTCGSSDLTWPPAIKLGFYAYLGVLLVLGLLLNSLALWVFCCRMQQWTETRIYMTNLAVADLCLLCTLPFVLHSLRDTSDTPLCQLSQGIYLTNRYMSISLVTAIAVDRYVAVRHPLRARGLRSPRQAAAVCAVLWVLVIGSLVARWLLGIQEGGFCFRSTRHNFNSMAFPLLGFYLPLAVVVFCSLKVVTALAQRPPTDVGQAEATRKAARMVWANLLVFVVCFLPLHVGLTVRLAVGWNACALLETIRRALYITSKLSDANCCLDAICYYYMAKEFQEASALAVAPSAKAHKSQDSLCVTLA
168 GPCRs (Homo sapiens, UniProt P21554), sequence (P21554 whole entry): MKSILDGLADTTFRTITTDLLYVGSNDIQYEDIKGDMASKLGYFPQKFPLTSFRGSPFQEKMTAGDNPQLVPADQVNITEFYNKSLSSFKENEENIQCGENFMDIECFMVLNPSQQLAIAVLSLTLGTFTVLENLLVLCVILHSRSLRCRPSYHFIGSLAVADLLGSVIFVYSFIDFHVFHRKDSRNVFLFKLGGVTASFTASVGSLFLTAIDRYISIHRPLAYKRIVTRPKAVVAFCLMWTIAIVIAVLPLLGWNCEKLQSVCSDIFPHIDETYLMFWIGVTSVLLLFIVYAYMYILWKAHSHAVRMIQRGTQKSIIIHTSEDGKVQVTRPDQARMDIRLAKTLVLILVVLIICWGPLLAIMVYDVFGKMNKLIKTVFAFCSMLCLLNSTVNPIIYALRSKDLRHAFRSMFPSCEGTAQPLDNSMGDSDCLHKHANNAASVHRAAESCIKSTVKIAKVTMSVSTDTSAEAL

## CNC(C)C(=O)c1ccc2c(c1)OCO2 (stereo not shown) [methylone, 3,4-methylenedioxy-N-methylcathinone]
168 GPCRs [1]; 1 uM
  activity at 1 µM: -0.2%
168 GPCRs [1]; 10 uM
  activity at 10 µM: 0.2%
168 GPCRs [2]; EDG1, Agonist mode, 10 uM
  activity at 10 µM: 0.4%
168 GPCRs [2]; EDG1, Agonist, 1 uM
  activity at 1 µM: 0.1%
168 GPCRs [3]; CNR1, Agonist mode, 10 uM
  activity at 10 µM: -2.7%
168 GPCRs [3]; CNR1, Agonist, 1 uM
  activity at 1 µM: -0.4%
168 GPCRs [4]; Agonist mode, 10 uM
  activity at 10 µM: -2.95%
168 GPCRs [4]; Agonist, 1 uM
  activity at 1 µM: -1.1%
168 GPCRs [5]; CXCR7, Agonist mode, 10 uM
  activity at 10 µM: -0.8%
168 GPCRs [5]; CXCR7, Agonist, 1 uM
  activity at 1 µM: -1.3%
168 GPCRs [6]; TACR3, Agonist mode, 10 uM
  activity at 10 µM: 1.1%
168 GPCRs [6]; TACR3, Agonist, 1 uM
  activity at 1 µM: 0.8%
168 GPCRs [7]; 1 uM
  activity at 1 µM: -1%
168 GPCRs [7]; 10 uM
  activity at 10 µM: 1.5%
168 GPCRs [8]; 1 uM
  activity at 1 µM: -3.4%
168 GPCRs [8]; 10 uM
  activity at 10 µM: -3.7%
168 GPCRs [9]; PTGER4, Agonist mode, 10 uM
  activity at 10 µM: -1.4%
168 GPCRs [9]; PTGER4, Agonist, 1 uM
  activity at 1 µM: -2.8%
168 GPCRs [10]; 1 uM
  activity at 1 µM: -0.9%
168 GPCRs [10]; 10 uM
  activity at 10 µM: -1.5%
168 GPCRs [11]; 1 uM
  activity at 1 µM: -4%
168 GPCRs [11]; 10 uM
  activity at 10 µM: -3%
168 GPCRs [12]; VIPR2, Agonist mode, 10 uM
  activity at 10 µM: -0.3%
168 GPCRs [12]; VIPR2, Agonist, 1 uM
  activity at 1 µM: -0.4%
168 GPCRs [13]; GALR1, Agonist mode, 10 uM
  activity at 10 µM: 0.6%
168 GPCRs [13]; GALR1, Agonist, 1 uM
  activity at 1 µM: 0.8%
168 GPCRs [14]; Agonist mode, 10 uM
  activity at 10 µM: -3%
168 GPCRs [14]; Agonist, 1 uM
  activity at 1 µM: -2.3%
168 GPCRs [15]; 1 uM
  activity at 1 µM: -1.2%
168 GPCRs [15]; 10 uM
  activity at 10 µM: -1.1%
168 GPCRs [16]; Agonist mode, 10 uM
  activity at 10 µM: 0.5%
168 GPCRs [16]; Agonist, 1 uM
  activity at 1 µM: 1%
168 GPCRs [17]; PTHR2, Agonist mode, 10 uM
  activity at 10 µM: -0.5%
168 GPCRs [17]; PTHR2, Agonist, 1 uM
  activity at 1 µM: -0.6%
168 GPCRs [18]; EDG4, Agonist mode, 10 uM
  activity at 10 µM: -2.1%
168 GPCRs [18]; EDG4, Agonist, 1 uM
  activity at 1 µM: -2.2%
168 GPCRs [19]; GPR35, Agonist mode, 10 uM
  activity at 10 µM: 2.5%
168 GPCRs [19]; GPR35, Agonist, 1 uM
  activity at 1 µM: 2.2%
168 GPCRs [20]; 1 uM
  activity at 1 µM: 8.4%
168 GPCRs [20]; 10 uM
  activity at 10 µM: 12.9%
